According to patent US20220002314A1 (priority 2018, published 2022):
Where two headings read alike, the source gives them in different places.

Tests used:
Human μ-opioid receptor = Human μ-opioid receptor (Homo sapiens, UniProt P35372); test: biochemical; assay type: binding
[1] = biological target: Human α2δ-1 subunit of Cav2.2 calcium channel (Homo sapiens, UniProt P54289); test: biochemical; assay type: binding
Human α2δ-1 subunit of Cav2.2 calcium channel, sequence (P54289 25-1103): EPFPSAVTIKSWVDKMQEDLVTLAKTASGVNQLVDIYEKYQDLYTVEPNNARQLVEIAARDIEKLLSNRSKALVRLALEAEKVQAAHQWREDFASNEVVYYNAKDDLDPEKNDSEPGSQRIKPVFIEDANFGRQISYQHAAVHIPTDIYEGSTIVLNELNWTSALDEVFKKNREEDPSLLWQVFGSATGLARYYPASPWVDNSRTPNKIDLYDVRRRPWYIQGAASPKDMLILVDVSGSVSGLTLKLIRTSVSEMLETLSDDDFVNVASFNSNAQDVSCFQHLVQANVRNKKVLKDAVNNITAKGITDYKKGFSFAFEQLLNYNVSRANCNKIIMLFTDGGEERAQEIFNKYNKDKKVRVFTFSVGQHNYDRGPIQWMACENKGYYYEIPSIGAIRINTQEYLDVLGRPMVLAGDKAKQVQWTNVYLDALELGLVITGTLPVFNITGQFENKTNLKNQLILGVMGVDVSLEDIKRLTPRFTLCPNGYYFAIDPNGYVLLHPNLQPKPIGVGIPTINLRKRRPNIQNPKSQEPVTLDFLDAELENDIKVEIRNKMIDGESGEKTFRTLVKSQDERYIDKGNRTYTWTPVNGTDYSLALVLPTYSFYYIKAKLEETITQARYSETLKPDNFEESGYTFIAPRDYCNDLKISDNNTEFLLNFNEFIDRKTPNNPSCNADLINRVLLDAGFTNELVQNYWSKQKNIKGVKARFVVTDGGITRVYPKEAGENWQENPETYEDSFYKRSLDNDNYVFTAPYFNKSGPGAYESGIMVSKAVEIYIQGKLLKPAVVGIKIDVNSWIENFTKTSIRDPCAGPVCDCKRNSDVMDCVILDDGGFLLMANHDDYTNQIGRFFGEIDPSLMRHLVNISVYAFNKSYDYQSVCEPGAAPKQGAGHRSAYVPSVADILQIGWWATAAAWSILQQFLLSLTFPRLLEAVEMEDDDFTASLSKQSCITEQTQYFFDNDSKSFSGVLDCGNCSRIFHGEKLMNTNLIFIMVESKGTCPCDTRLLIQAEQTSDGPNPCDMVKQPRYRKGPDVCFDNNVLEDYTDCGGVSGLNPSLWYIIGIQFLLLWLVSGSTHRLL

Human μ-opioid receptor, sequence (P35372 whole entry): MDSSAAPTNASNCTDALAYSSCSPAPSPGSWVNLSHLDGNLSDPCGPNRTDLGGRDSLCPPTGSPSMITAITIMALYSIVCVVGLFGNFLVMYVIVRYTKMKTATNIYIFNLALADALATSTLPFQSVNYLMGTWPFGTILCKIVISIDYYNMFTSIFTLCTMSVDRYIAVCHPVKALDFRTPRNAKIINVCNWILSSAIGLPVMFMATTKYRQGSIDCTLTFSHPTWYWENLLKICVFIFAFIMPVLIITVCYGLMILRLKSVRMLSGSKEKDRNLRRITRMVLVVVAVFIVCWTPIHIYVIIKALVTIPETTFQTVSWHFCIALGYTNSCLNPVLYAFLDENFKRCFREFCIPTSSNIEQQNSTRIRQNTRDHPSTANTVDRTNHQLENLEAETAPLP

CCC[C@H](c1nc2c(F)cc(OC)cc2c(=O)n1CC)N1CCNCC1 [Example 38, (R)-3-ethyl-8-fluoro-6-methoxy-2-(1-(piperazin-1-yl)butyl)quinazolin-4(3H)-one] showed a Ki (Human μ-opioid receptor) of 100 to 500 nM and a Ki [1] of under 0.5 µM.
CCC[C@@H](c1nc2cc(F)c(Cl)cc2c(=O)n1CC)N1CCN[C@@H](C)C1 [Example 54, 6-chloro-3-ethyl-7-fluoro-2-((S)-1-((S)-3-methylpiperazin-1-yl)butyl)quinazolin-4(3H)-one] showed a Ki (Human μ-opioid receptor) of over 500 nM and a Ki [1] of over 5 µM.
With CCCC(c1nc2c(C)cc(Br)cc2c(=O)n1CC)N1CCNCC1 (stereo not shown) [Example 89, 6-bromo-3-ethyl-8-methyl-2-(1-(piperazin-1-yl)butyl)quinazolin-4(3H)-one] the Ki (Human μ-opioid receptor) was under 100 nM and the Ki [1] was over 5 µM.
Compound CCCC(c1nc2ccc(O)cc2c(=O)n1CC)N1C[C@@H](C)N[C@@H](C)C1 (stereo partly drawn) [Example 12, 2-(1-((3S,5R)-3,5-dimethylpiperazin-1-yl)butyl)-3-ethyl-6-hydroxyquinazolin-4(3H)-one] has a Ki (Human μ-opioid receptor) of over 500 nM and a Ki [1] of under 0.5 µM.
CCC[C@@H](c1nc2ccc(Cl)cc2c(=O)n1CC)N1CCN[C@@H](C)C1 [Example 104, 6-chloro-3-ethyl-2-((S)-1-((S)-3-methylpiperazin-1-yl)butyl)quinazolin-4(3H)-one] was tested, and the Ki (Human μ-opioid receptor) was over 500 nM and the Ki [1] was over 5 µM.
For CCC[C@@H](c1nc2ccccc2c(=O)n1CC)N1CCN[C@@H](C)C1 [Example 44, 3-ethyl-2-((S)-1-((S)-3-methylpiperazin-1-yl)butyl)quinazolin-4(3H)-one], the Ki (Human μ-opioid receptor) was over 500 nM and the Ki [1] was over 5 µM.
For CCC[C@H](c1nc2ccc(N3C[C@@H](C)OC4(CCN(CCc5ccccc5)CC4)C3)cc2c(=O)n1CC)N1C[C@@H](C)N[C@@H](C)C1 [Example 157, 2-((R)-1-((3S,5R)-3,5-dimethylpiperazin-1-yl)butyl)-3-ethyl-6-((R)-2-methyl-9-phenethyl-1-oxa-4,9-diazaspiro[5.5]undecan-4-yl)quinazolin-4(3H)-one], the Ki (Human μ-opioid receptor) was over 500 nM and the Ki ([1]; binding to α2δ-1 subunit of voltage-gated calcium channels expressed as Ki, + also Ki>5000 nM or inhibition between 1% and 50%, read-out: α2δ-1 binding) was 0.5 to 5 µM.
CCC[C@@H](c1nc2cc(F)c(Br)cc2c(=O)n1C)N1CCN[C@@H](C)C1 [Example 63, 6-bromo-7-fluoro-3-methyl-2-((S)-1-((S)-3-methylpiperazin-1-yl)butyl)quinazolin-4(3H)-one] was tested, and the Ki (Human μ-opioid receptor) was over 500 nM and the Ki [1] was over 5 µM.
Compound CCCC(c1nc2ccc(N(C)Cc3ccccc3)cc2c(=O)n1CC)N1C[C@@H](C)N[C@@H](C)C1 (stereo partly drawn) [Example 144, 6-(benzyl(methyl)amino)-2-(1-((3S,5R)-3,5-dimethylpiperazin-1-yl)butyl)-3-ethylquinazolin-4(3H)-one] has a Ki (Human μ-opioid receptor) of over 500 nM and a Ki [1] of under 0.5 µM.
CCC[C@H](c1nc2cc(F)c(Br)cc2c(=O)n1C)N1CCN[C@@H](C)C1 [Example 62, 6-Bromo-7-fluoro-3-methyl-2-((R)-1-((S)-3-methylpiperazin-1-yl)butyl)quinazolin-4(3H)-one] was tested, and the Ki (Human μ-opioid receptor) was 100 to 500 nM and the Ki [1] was under 0.5 µM.
CCC[C@H](c1nc2ccncc2c(=O)n1CC)N1CCN[C@H](C)C1 [Example 64, 3-Ethyl-2-((R)-1-((R)-3-methylpiperazin-1-yl)butyl)pyrido[4,3-d]pyrimidin-4(3H)-one] was tested, and the Ki (Human μ-opioid receptor) was over 500 nM and the Ki [1] was under 0.5 µM.
Work on CCC[C@H](c1nc2ccc(Cl)cc2c(=O)n1CC)N1CCN[C@H](C)C1 [Example 101, 6-Chloro-3-ethyl-2-((R)-1-((R)-3-methylpiperazin-1-yl)butyl)quinazolin-4(3H)-one] yielded a Ki (Human μ-opioid receptor) of over 500 nM and a Ki [1] of under 0.5 µM.
CCC[C@H](c1nc2ccc(Br)cc2c(=O)n1CC)N1C[C@@H](C)N[C@@H](C)C1 [Example 29, 6-bromo-2-((R)-1-((3S,5R)-3,5-dimethylpiperazin-1-yl)butyl)-3-ethylquinazolin-4(3H)-one] was tested, and the Ki (Human μ-opioid receptor) was over 500 nM and the Ki [1] was under 0.5 µM.
CCC[C@H](c1nc2ncc(Cl)cc2c(=O)n1CC)N1CCN[C@@H](C)C1 [Example 76, 6-Chloro-3-ethyl-2-((R)-1-((S)-3-methylpiperazin-1-yl)butyl)pyrido[2,3-d]pyrimidin-4(3H)-one] was tested, and the Ki (Human μ-opioid receptor) was 100 to 500 nM and the Ki [1] was under 0.5 µM.
CCC[C@H](c1nc2ccc(Br)cc2c(=O)n1CC)[C@@H]1CCN[C@@H](C)C1 [Example 193, 6-bromo-3-ethyl-2-((S)-1-((2S,4R)-2-methylpiperidin-4-yl)butyl)quinazolin-4(3H)-one] gave a Ki (Human μ-opioid receptor) of over 500 nM and a Ki [1] of over 5 µM.
CCC[C@@H](c1nc2ccncc2c(=O)n1CC)N1CCN[C@H](C)C1 [Example 65, 3-ethyl-2-((S)-1-((R)-3-methylpiperazin-1-yl)butyl)pyrido[4,3-d]pyrimidin-4(3H)-one] was tested, and the Ki (Human μ-opioid receptor) was over 500 nM and the Ki [1] was over 5 µM.
CCC[C@@H](c1nc2nc(C(F)(F)F)ccc2c(=O)n1CC)N1CCN[C@@H](C)C1 [Example 77, 3-Ethyl-2-((S)-1-((S)-3-methylpiperazin-1-yl)butyl)-7-(trifluoromethyl)pyrido[2,3-d]pyrimidin-4(3H)-one] gave a Ki (Human μ-opioid receptor) of over 500 nM and a Ki [1] of over 5 µM.
For CCCC(c1nc2ccc(CN(C)CCC(C)C)cc2c(=O)n1CC)N1C[C@@H](C)N[C@@H](C)C1 (stereo partly drawn) [Example 185, 2-(1-((3S,5R)-3,5-dimethylpiperazin-1-yl)butyl)-3-ethyl-6-((isopentyl(methyl)amino)methyl)quinazolin-4(3H)-one], the Ki (Human μ-opioid receptor) was over 500 nM and the Ki [1] was under 0.5 µM.
With COCCn1c(C(CC(C)C)N2C[C@@H](C)N[C@@H](C)C2)nc2ccccc2c1=O (stereo partly drawn) [Example 114, 2-(1-((3S,5R)-3,5-dimethylpiperazin-1-yl)-3-methylbutyl)-3-(2-methoxyethyl)quinazolin-4(3H)-one] the Ki (Human μ-opioid receptor; read-out: μ-binding) was over 500 nM and the Ki ([1]; read-out: α2δ-1 binding) was over 5 µM.
For CCC[C@@H](c1nc2ccc(Br)cc2c(=O)n1CC)[C@@H]1CCNCC1(F)F [Example 197, 6-bromo-2-((R)-1-((S)-3,3-difluoropiperidin-4-yl)butyl)-3-ethylquinazolin-4(3H)-one], the Ki (Human μ-opioid receptor) was over 500 nM and the Ki [1] was 0.5 to 5 µM.
Compound CCC[C@@H](c1nc2c(F)cc(OC)cc2c(=O)n1CC)N1CCN[C@@H](C)C1 [Example 45, 3-Ethyl-8-fluoro-6-methoxy-2-((S)-1-((S)-3-methylpiperazin-1-yl)butyl)quinazolin-4(3H)-one] has a Ki (Human μ-opioid receptor) of over 500 nM and a Ki [1] of over 5 µM.
CCC[C@@H](c1nc2ccc(Br)cc2c(=O)n1CC)[C@H]1CCN[C@@H](C)C1 [Example 190, 6-Bromo-3-ethyl-2-((R)-1-((2S,4S)-2-methylpiperidin-4-yl)butyl)quinazolin-4(3H)-one] was tested, and the Ki (Human μ-opioid receptor) was over 500 nM and the Ki [1] was over 5 µM.
CCC[C@@H](c1nc2ccc(Br)cc2c(=O)n1C)N1CCN[C@@H](C)C1 [Example 42, 6-bromo-3-methyl-2-((S)-1-((S)-3-methylpiperazin-1-yl)butyl)quinazolin-4(3H)-one] showed a Ki (Human μ-opioid receptor) of over 500 nM and a Ki [1] of over 5 µM.
In the case of CCCC(c1nc2ccccc2c(=O)n1CCOC)N1C[C@@H](C)N[C@@H](C)C1 (stereo partly drawn) [Example 113, 2-(1-((3S,5R)-3,5-Dimethylpiperazin-1-yl)butyl)-3-(2-methoxyethyl)quinazolin-4(3H)-one], the Ki (Human μ-opioid receptor) is reported as over 500 nM and the Ki [1] is reported as under 0.5 µM.
CCC[C@@H](c1nc2ccc(Cl)cc2c(=O)n1CC)N1CCN[C@H](CF)C1 [Example 232, 6-chloro-3-ethyl-2-((S)-1-((S)-3-(fluoromethyl)piperazin-1-yl)butyl)quinazolin-4(3H)-one] showed a Ki (Human μ-opioid receptor) of over 500 nM and a Ki [1] of over 5 µM.
CCCC(c1nc2ccc(Br)c(F)c2c(=O)n1CC)N1C[C@@H](C)N[C@@H](C)C1 (stereo partly drawn) [Example 22, 6-bromo-2-(1-((3S,5R)-3,5-dimethylpiperazin-1-yl)butyl)-3-ethyl-5-fluoroquinazolin-4(3H)-one] was tested, and the Ki (Human μ-opioid receptor) was over 500 nM and the Ki [1] was under 0.5 µM.
Work on CCC[C@@H](c1nc2ncc(Br)cc2c(=O)n1CC)N1CCN[C@@H](C)C1 [Example 69, 6-bromo-3-ethyl-2-((S)-1-((S)-3-methylpiperazin-1-yl)butyl)pyrido[2,3-d]pyrimidin-4(3H)-one] yielded a Ki (Human μ-opioid receptor) of over 500 nM and a Ki [1] of over 5 µM.
CCC[C@H](c1nc2ccc(Br)cc2c(=O)n1CC)N1C[C@H](C)N[C@@H](C)C1 [Example 228, 6-Bromo-2-((R)-1-((3S,5S)-3,5-dimethylpiperazin-1-yl)butyl)-3-ethylquinazolin-4(3H)-one] showed a Ki (Human μ-opioid receptor) of under 100 nM and a Ki [1] of over 5 µM.
CCCC(c1nc2cccc(Br)c2c(=O)n1CC)N1C[C@@H](C)N[C@@H](C)C1 (stereo partly drawn) [Example 14, 5-bromo-2-(1-((3S,5R)-3,5-dimethylpiperazin-1-yl)butyl)-3-ethylquinazolin-4(3H)-one] gave a Ki (Human μ-opioid receptor) of over 500 nM and a Ki [1] of under 0.5 µM.
For CCC[C@@H](c1nc2ccc(Br)cc2c(=O)n1CC)N1CCN[C@@H](COC)C1 [Example 220, 6-bromo-3-ethyl-2-((S)-1-((R)-3-(methoxymethyl)piperazin-1-yl)butyl)quinazolin-4(3H)-one], the Ki (Human μ-opioid receptor) was over 500 nM and the Ki [1] was over 5 µM.
Work on CCCC(c1nc2ccc(-c3ccncc3)cc2c(=O)n1CC)N1C[C@@H](C)N[C@@H](C)C1 (stereo partly drawn) [Example 132, 2-(1-((3S,5R)-3,5-Dimethylpiperazin-1-yl)butyl)-3-ethyl-6-(pyridin-4-yl)quinazolin-4(3H)-one] yielded a Ki (Human μ-opioid receptor) of over 500 nM and a Ki [1] of under 0.5 µM.
CCCC(c1nc2c(Br)c(OC)ccc2c(=O)n1CC)N1C[C@@H](C)N[C@@H](C)C1 (stereo partly drawn) [Example 5, 8-bromo-2-(1-((3S,5R)-3,5-dimethylpiperazin-1-yl)butyl)-3-ethyl-7-methoxyquinazolin-4(3H)-one] showed a Ki (Human μ-opioid receptor; read-out: μ-binding) of over 500 nM and a Ki ([1]; read-out: α2δ-1 binding) of 0.5 to 5 µM.
In the case of CCC[C@H](c1nc2c(F)cc(Cl)cc2c(=O)n1C)N1CCN[C@@H](C)C1 [Example 223, 6-chloro-8-fluoro-3-methyl-2-((R)-1-((S)-3-methylpiperazin-1-yl)butyl)quinazolin-4(3H)-one], the Ki (Human μ-opioid receptor) is reported as under 100 nM and the Ki [1] is reported as over 5 µM.
In the case of CCCC(c1nc2ccc(NCC)cc2c(=O)n1CC)N1C[C@@H](C)N[C@@H](C)C1 (stereo partly drawn) [Example 24, 2-(1-((3S,5R)-3,5-dimethylpiperazin-1-yl)butyl)-3-ethyl-6-(ethylamino)quinazolin-4(3H)-one], the Ki (Human μ-opioid receptor) is reported as over 500 nM and the Ki [1] is reported as under 0.5 µM.
In the case of CCC[C@H](c1nc2ncc(Br)cc2c(=O)n1CC1CC1)N1CCN[C@@H](C)C1 [Example 75, 6-bromo-3-(cyclopropylmethyl)-2-((R)-1-((S)-3-methylpiperazin-1-yl)butyl)pyrido[2,3-d]pyrimidin-4(3H)-one], the Ki (Human μ-opioid receptor) is reported as over 500 nM and the Ki [1] is reported as under 0.5 µM.
